Experimental data: patent US20220220100A1 (SOLUTIA CANADA INC., priority 2019, published 2022)

Columns and labels:
[1] = UV/Vis absorbance at 400 nm and Yellowness Index of the ring-open isomer; assay type: physicochemical; conditions: for Abs @ 400 nm, RO (Absorption of ring-open isomer at 400 nm): 2×10^−5 M solution, 1 cm pathlength cuvette
From the text: In addition to the above, chromophores should have acceptable colour for both the ring-opened and ring-closed isomers. For example, the ring-open isomer of the chromophore should have a Yellowness Index (YI) of less than about 10 and an absorbance at 400 nm, as measured for a 2×10^−5 M solution in a 1 cm pathlength cuvette. For the ring-closed isomer of the chromophore, the lambda max should be between about 475 nm and 700 nm, tunable according to desired colour and number of chromophores in the composition.
(§1) UV/Vis spectra were obtained using an OceanOptics™ Spectrophotometer. A 2×10^−5 M solution of compound in solvent was prepared, and photofaded using visible light until absorption in the visible region of the spectrum stabilized. The sample was then irradiated with simulated sunlight (QSUN SS-150 Solar Simulator with xenon arc lamp) until the absorption spectrum stabilized. To obtain PSS in the presence of a UV blocking film, a second sample was prepared and irradiated as described, with a UV blocking film inserted in the light path when irradiating.

[2] = Photostationary state (PSS) and lambda max under simulated sunlight (solar simulator); assay type: physicochemical; conditions: for PSS (Steady State): head of Table 3; for PSS (Steady State) / PSS (SS): absorbance at photostationary state, 2×10^−5 M solution; for λmax (nm): peak in the visible range, ring-closed (dark) state; for PSS (SS): simulated sunlight (solar simulator)
From the text: The term “photostationary state” (PSS) refers to an equilibrium state of a compound or material where the rate of the ring closing (forward) reaction is equal to the rate of the ring-opening reaction, when irradiated with light in a given region of the spectrum. In other words, the ratio of the ring-open isomer to the ring-closed isomer is at an equilibrium. PSS may be expressed with reference to a light source, or with reference to a type of light, for example, QUV, Xenon-arc lamp, Q-SUN, natural or filtered sunlight, UV, VIS, IR, NIR, full spectrum or the like, or with reference to a particular wavelength or range of wavelengths, or in the presence or absence of a filter. Some ring-open and ring-closed isomers may undergo isomerization from one to the other in response to different wavelengths of light. If a wavelength of light is used where only one of the isomers absorbs, irradiation results in complete isomerization to the other form. 254 nm, 313 nm or 365 nm light are commonly used in studies of UV-absorbing isomers, but this may not be representative of the PSS under other light conditions that include the visible spectrum such as natural or simulated sunlight (“full spectrum” light) and/or with filters that block a portion of the UV component of the light. For example, in a ring-closed (dark) state, the magnitude of the maximum absorbance in the visible range may change with the light source (FIG. 1). The wavelength at this peak in the visible range may be referred to as lambda max, or λmax. […] When full spectrum light from a solar simulator (Xenon arc lamp) is used as a light source (line B), a balance is achieved between the ring-closed (dark) state induced by the UV component, and a ring-open (faded) state induced by the visible component of the light. Inclusion of a UV blocking layer in the light path (line A) may reduce the UV component of the light, and the ring-opening reaction induced by the visible light component becomes more prominent. […] Where desired, the ratio of ring-open and ring-closed isomers at a PSS may be quantified by ^1H NMR spectroscopy, such as described in U.S. Pat. No. 7,777,055. In various embodiments, compounds with an increased absorbance at a photostationary state (PSS), or increased contrast ratio, are an improvement over other diarylethene compounds. A compound with a greater absorbance in the visible range can be used in lesser quantities in a formulation or material to achieve a desired contrast ratio, whereas a compound with a lower absorbance at a PSS may need a higher concentration to achieve a desired contrast ratio.
Photostationary State (PSS)
as §1

COc1ccc2c(C3=C(c4cc(-c5ccc(C(C)(C)C)s5)sc4-c4ccc(C(C)(C)C)s4)C(F)(F)C(F)(F)C3(F)F)c(-c3ccc(C(C)(C)C)cc3)oc2c1
YI (Yellowness Index) [1]: 3.32 | Abs @ 400 nm, RO (Absorption of ring-open isomer at 400 nm) [1]: 0.0809 | PSS (Steady State) [2]: 0.255 | λmax (nm) [2]: 575 nm

COc1cc2oc(-c3ccc(C(C)(C)C)cc3)c(C3=C(c4cc(-c5cc6c(s5)C(C)(C)CCC6(C)C)sc4-c4cc5c(s4)C(C)(C)CCC5(C)C)C(F)(F)C(F)(F)C3(F)F)c2cc1OC
YI (Yellowness Index) [1]: 8.12 | Abs @ 400 nm, RO (Absorption of ring-open isomer at 400 nm) [1]: 0.131 | PSS (SS) [2]: 0.358 | λmax (nm) [2]: 594 nm

COCCCOc1cc2oc(-c3ccc(C(C)(C)C)cc3)c(C3=C(c4cc(-c5cc(C(C)(C)C)cs5)sc4-c4cc(C(C)(C)C)cs4)C(F)(F)C(F)(F)C3(F)F)c2cc1OCCCOC
YI (Yellowness Index) [1]: 4.29 | Abs @ 400 nm, RO (Absorption of ring-open isomer at 400 nm) [1]: 0.103 | PSS (SS) [2]: 0.319 | λmax (nm) [2]: 594 nm

CC(C)(C)c1ccc(-c2oc3cc(OCCN4C(=O)CCC4=O)c(OCCN4C(=O)CCC4=O)cc3c2C2=C(c3cc(-c4cc(C(C)(C)C)cs4)sc3-c3cc(C(C)(C)C)cs3)C(F)(F)C(F)(F)C2(F)F)cc1
YI (Yellowness Index) [1]: 4.72 | Abs @ 400 nm, RO (Absorption of ring-open isomer at 400 nm) [1]: 0.136 | PSS (SS) [2]: 0.364 | λmax (nm) [2]: 585 nm

COc1cc2oc(-c3ccc(C(C)(C)C)cc3)c(C3=C(c4cc(-c5ccc(C(C)(C)C)s5)sc4-c4ccc(C(C)(C)C)s4)C(F)(F)C(F)(F)C3(F)F)c2cc1OC [Chromophore S340, 2-(4-(tert-butyl)phenyl)-3-(2-(5,5″-di-tert-butyl-[2,2′:5′,2″-terthiophen]-3′-yl)-3,3,4,4,5,5-hexafluorocyclopent-1-en-1-yl)-5,6-dimethoxybenzofuran]
YI (Yellowness Index) [1]: 5.61 | Abs @ 400 nm, RO (Absorption of ring-open isomer at 400 nm) [1]: 0.128 | PSS (Steady State) [2]: 0.417 | λmax (nm) [2]: 591 nm

CC(C)(C)c1ccc(-c2oc3ccccc3c2C2=C(c3cc(-c4ccc(C(C)(C)C)s4)sc3-c3ccc(C(C)(C)C)s3)C(F)(F)C(F)(F)C2(F)F)cc1 [Chromophore S343, 2-(4-(tert-butyl)phenyl)-3-(2-(5,5″-di-tert-butyl-[2,2′:5′,2″-terthiophen]-3′-yl)-3,3,4,4,5,5-hexafluorocyclopent-1-en-1-yl)benzofuran]
YI (Yellowness Index) [1]: 4.87 | Abs @ 400 nm, RO (Absorption of ring-open isomer at 400 nm) [1]: 0.11 | PSS (Steady State) [2]: 0.315 | λmax (nm) [2]: 573 nm

COc1ccc2oc(-c3ccc(C(C)(C)C)cc3)c(C3=C(c4cc(-c5ccc(C(C)(C)C)s5)sc4-c4ccc(C(C)(C)C)s4)C(F)(F)C(F)(F)C3(F)F)c2c1 [Chromophore S344, 2-(4-(tert-butyl)phenyl)-3-(2-(5,5″-di-tert-butyl-[2,2′:5′,2″-terthiophen]-3′-yl)-3,3,4,4,5,5-hexafluorocyclopent-1-en-1-yl)-5-methoxybenzofuran]
YI (Yellowness Index) [1]: 2.91 | Abs @ 400 nm, RO (Absorption of ring-open isomer at 400 nm) [1]: 0.1 | PSS (Steady State) [2]: 0.337 | λmax (nm) [2]: 583 nm

COCCOc1cc2oc(-c3ccc(C(C)(C)C)cc3)c(C3=C(c4cc(-c5ccc(C(C)(C)C)s5)sc4-c4ccc(C(C)(C)C)s4)C(F)(F)C(F)(F)C3(F)F)c2cc1OCCOC [Chromophore S364, 2-(4-(tert-butyl)phenyl)-3-(2-(5,5″-di-tert-butyl-[2,2′:5′,2″-terthiophen]-3′-yl)-3,3,4,4,5,5-hexafluorocyclopent-1-en-1-yl)-5,6-bis(2-methoxyethoxy)benzofuran]
YI (Yellowness Index) [1]: 4.21 | Abs @ 400 nm, RO (Absorption of ring-open isomer at 400 nm) [1]: 0.105 | PSS (Steady State) [2]: 0.427 | λmax (nm) [2]: 593 nm

CC(=O)Oc1cc2oc(-c3ccc(C(C)(C)C)cc3)c(C3=C(c4cc(-c5ccc(C(C)(C)C)s5)sc4-c4ccc(C(C)(C)C)s4)C(F)(F)C(F)(F)C3(F)F)c2cc1OC(C)=O [Chromophore S367, 2-(4-(tert-butyl)phenyl)-3-(2-(5,5″-di-tert-butyl-[2,2′:5′,2″-terthiophen]-3′-yl)-3,3,4,4,5,5-hexafluorocyclopent-1-en-1-yl)benzofuran-5,6-diyl diacetate]
YI (Yellowness Index) [1]: 5.47 | Abs @ 400 nm, RO (Absorption of ring-open isomer at 400 nm) [1]: 0.102 | PSS (Steady State) [2]: 0.32 | λmax (nm) [2]: 583 nm

CCOC(=O)CCCOc1cc2oc(-c3ccc(C(C)(C)C)cc3)c(C3=C(c4cc(-c5ccc(C(C)(C)C)s5)sc4-c4ccc(C(C)(C)C)s4)C(F)(F)C(F)(F)C3(F)F)c2cc1OCCCC(=O)OCC [Chromophore S374, diethyl 4,4′-((2-(4-(tert-butyl)phenyl)-3-(2-(5,5″-di-tert-butyl-[2,2′:5′,2″-terthiophen]-3′-yl)-3,3,4,4,5,5-hexafluorocyclopent-1-en-1-yl)benzofuran-5,6-diyl)bis(oxy))dibutanoate]
YI (Yellowness Index) [1]: 6.76 | Abs @ 400 nm, RO (Absorption of ring-open isomer at 400 nm) [1]: 0.144 | PSS (Steady State) [2]: 0.422 | λmax (nm) [2]: 590 nm

COc1cc2oc(-c3ccc(C(C)(C)C)cc3)c(C3=C(c4cc(-c5cc(C(C)(C)C)cs5)sc4-c4cc(C(C)(C)C)cs4)C(F)(F)C(F)(F)C3(F)F)c2cc1OC [Chromophore S377, 2-(4-(tert-butyl)phenyl)-3-(2-(4,4″-di-tert-butyl-[2,2′:5′,2″-terthiophen]-3′-yl)-3,3,4,4,5,5-hexafluorocyclopent-1-en-1-yl)-5,6-dimethoxybenzofuran]
YI (Yellowness Index) [1]: 4.89 | Abs @ 400 nm, RO (Absorption of ring-open isomer at 400 nm) [1]: 0.101 | PSS (SS) [2]: 0.308 | λmax (nm) [2]: 593 nm

COc1cc2oc(-c3ccc(C(C)(C)C)cc3)c(C3=C(c4cc(-c5ccc(C(C)(C)C)s5)sc4-c4sc(C(C)(C)C)cc4C)C(F)(F)C(F)(F)C3(F)F)c2cc1OC [Chromophore S378, 2-(4-(tert-butyl)phenyl)-3-(2-(5,5″-di-tert-butyl-3-methyl-[2,2′:5′,2″-terthiophen]-3′-yl)-3,3,4,4,5,5-hexafluorocyclopent-1-en-1-yl)-5,6-dimethoxybenzofuran]
YI (Yellowness Index) [1]: 4.94 | Abs @ 400 nm, RO (Absorption of ring-open isomer at 400 nm) [1]: 0.127 | PSS (Steady State) [2]: 0.351 | λmax (nm) [2]: 593 nm

CCOC(=O)CCCOc1cc2oc(-c3ccc(C(C)(C)C)cc3)c(C3=C(c4cc(-c5ccc(C(C)(C)C)s5)sc4-c4sc(C(C)(C)C)cc4C)C(F)(F)C(F)(F)C3(F)F)c2cc1OCCCC(=O)OCC [Chromophore S383, diethyl 4,4′-((2-(4-(tert-butyl)phenyl)-3-(2-(5,5″-di-tert-butyl-3-methyl-[2,2′:5′,2″-terthiophen]-3′-yl)-3,3,4,4,5,5-hexafluorocyclopent-1-en-1-yl)benzofuran-5,6-diyl)bis(oxy))dibutanoate]
YI (Yellowness Index) [1]: 4.52 | Abs @ 400 nm, RO (Absorption of ring-open isomer at 400 nm) [1]: 0.144 | PSS (Steady State) [2]: 0.408 | λmax (nm) [2]: 590 nm

CCOC(=O)CCCOc1cc2oc(-c3ccc(C(C)(C)C)cc3)c(C3=C(c4cc(-c5sc(C(C)(C)C)cc5C)sc4-c4sc(C(C)(C)C)cc4C)C(F)(F)C(F)(F)C3(F)F)c2cc1OCCCC(=O)OCC [Chromophore S384, diethyl 4,4′-((2-(4-(tert-butyl)phenyl)-3-(2-(5,5″-di-tert-butyl-3,3″-dimethyl-[2,2′:5′,2″-terthiophen]-3′-yl)-3,3,4,4,5,5-hexafluorocyclopent-1-en-1-yl)benzofuran-5,6-diyl)bis(oxy))dibutanoate]
YI (Yellowness Index) [1]: 4.13 | Abs @ 400 nm, RO (Absorption of ring-open isomer at 400 nm) [1]: 0.107 | PSS (Steady State) [2]: 0.342 | λmax (nm) [2]: 593 nm
